Test results as given in publication PMC11866022, “Long-Chain Cyclic Arylguanidines as Multifunctional Serotonin Receptor Ligands with Antiproliferative Activity” (ACS Omega, 2025).
“And” between values parts separate entries of the source, which are not always exact repeats. Identical values can stand only once.

Experiments:
[1] = calibration standards, assigned values, no reference given; cited from earlier work
1321N1 astrocytoma cells = assay: Antiproliferative activity (MTS), 1321N1; type: cell-based, human; details: Homo sapiens, 1321-N1; MTS assay
Method: (§1) These cell lines were characterized by different mutation profiles, the main one being the variable status of the p53 protein. In detail, U87MG cells have a wild-type p53 protein, while astrocytoma and the rest of GBM cells harbor mutated p53 protein. Additional assays were performed on MCF7 breast cancer and AsPC-1 pancreatic cancer cells. The wide range of tested lines was aimed at screening the anticancer potential of the tested compounds. The first represents one of the most common and the second one of the most aggressive cancers in the world. Comparing the activity of compounds on GBM cells to other types of cancer may reveal their selectivity and usefulness in targeted therapies. The cytotoxicity of the compounds on normal human astrocytes (NHA) and Feline catus astrocyte (PG-4) was determined. Tests on normal lines serve to verify the potential toxicity of the tested compounds on healthy cells. Due to the targeting of CNS tumors, astrocytes were selected as normal lines.
(§2) The detailed procedure is presented in previous publications.[53] […] Cells were cultured in appropriate media, supplemented with FBS, antibiotics, and other supplements, and incubated at 37 °C with 5% CO2. […] Cell viability was assessed using the MTS assay, and the inhibitory concentration (IC50) was calculated using GraphPad Prism 8.0. Each compound was tested in triplicate across multiple experiments.
Supplementary materials - Biological research […]

5-HT6 = molecular target: T1, 5-HT6 (Homo sapiens, UniProt P50406); assay: Radioligand binding assay, 5-HT6 ([3H]-LSD); details: HEK293 cell line with human 5-HT6R; 2 nM [3H]-LSD
T1 construct: expressed in transfected cells; host or cells: HEK293
Method: Ligand affinity for 5-HT6 receptors was subsequently tested with a radioligand binding assay, using the HEK293 cell line with human 5-HT6R, aiming to select compounds with the strongest affinity. Three compounds belonging to 2-naphthalenesulfonamide derivatives of 3,4-dihydroquinazolin-2-amines were obtained (Table 1).
The detailed procedure is presented in previous publications.[53] Assays were performed by incubating for 1 h at 37 °C (room temperature for 5-HT1A) in 200 μL volumes on 96-well plates. The reaction was terminated by rapid filtration using Unifilter plates, and radioactivity on the filters was measured with a PerkinElmer Microbeta plate reader. Radioligands used were:
Eight concentrations (10^–4 to 10^–11 M) were tested in triplicate for each compound. Inhibition constants (Ki) were calculated using the Cheng–Prusoff equation.[54] The results are expressed as the means of at least two independent experiments.

U87MG glioblastoma cells = assay: Antiproliferative activity (MTS), U87MG; type: cell-based, human; details: Homo sapiens, U-87 MG; MTS assay
Method: as §1, §2
Supplementary materials - Biological research
B) U87MG glioblastoma multiforme line.
and U87MG glioblastoma multiforme line for C) PP 3; D) PP 6; E) PP 8; F) PP 10; G) PP 11; H) PP

[2] = molecular target: T2, human serum albumin (HSA) (Homo sapiens, UniProt P02768); assay: HSA binding by biochromatography (HSA column); type: in vitro ADME; details: HSA column
T2 construct: purchased
Method: (§3) Lipophilicity and affinity for phospholipids for each investigated molecule were assessed. Additionally, selected compounds with the highest biological activities have been characterized by their affinity plasma proteins. All experiments were performed using protocols developed by Valko.[35] These methods facilitated the calculation of chromatographic hydrophobicity indices (CHI) and plasma protein binding percentages (%PPB) in a biochromatographic experiment, with results compared to the reference. A detailed description of the experiments is provided in the Supporting Information (SI), along with the raw data. […] Although high lipophilicity may limit the medical use of the analyzed compounds since they may tend to accumulate excessively in the human body, it is remarkable that several clinically used drugs also have high lipophilicity. […] (Table 5).
(§4) The detailed procedure is presented in previous publications.[53] High-performance liquid chromatography (HPLC) analyses were conducted using the Prominence-1 LC-2030C 3D system (Shimadzu) with a DAD detector, employing three different chromatographic columns with specific stationary phases and mobile phases. The analysis was performed at 30 °C with a flow rate of 1.5 mL/min for IAM and C18 columns, and 0.9 mL/min for the Chiralpak column. Calibration standards for the columns were sourced from various suppliers and dissolved in dimethyl sulfoxide. Detection occurred in the UV range (190–300 nm) with a 5 μL injection volume. Each compound was analyzed in triplicate. Retention times for the tested compounds and calibration standards are provided in the Supporting Information (Tables S1 and S2).

[3] = Lipophilicity, chromatographic hydrophobicity index on C18 (Valko protocol); type: physicochemical
Method: as §3, §4

MCF7 breast cancer cells = assay: Antiproliferative activity (MTS), MCF7; type: cell-based, human; details: Homo sapiens, MCF7; MTS assay, 72 h
Method: as §1, §2

[4] = test system: LN-229 glioblastoma cells; assay: Antiproliferative activity (MTS), LN-229; type: cell-based, human; details: Homo sapiens, LN-229; MTS assay, 72 h
Method: as §1, §2

[5] = Affinity to phospholipids, CHI IAM (Valko protocol); type: physicochemical; details: IAM column
Method: as §3, §4

U-251 glioblastoma cells = assay: Antiproliferative activity (MTS), U-251; type: cell-based, human; details: Homo sapiens, U-251; MTS assay, 72 h
Method: as §1, §2

[6] = test system: AsPC-1 pancreatic cancer cells; assay: Antiproliferative activity (MTS), AsPC-1; type: cell-based, human; details: Homo sapiens, ASPC1; MTS assay, 72 h
Method: as §1, with “The chosen group of ligands was further examined for their ability to inhibit proliferation across multiple cancer cell lines related to the CNS system (1321N1, U87MG, LN-229, and U-251). These” for “These”
The detailed procedure is presented in previous publications.[53] Briefly, the study utilized various human cancer and normal cell lines, including LN-229 (glioblastoma), MCF7 (breast carcinoma), HepG2 (hepatoma), U-251 (glioblastoma), U87MG (glioblastoma), AsPC-1 (pancreatic adenocarcinoma), and NHA (normal human astrocytes). Cells were cultured in appropriate media, supplemented with FBS, antibiotics, and other supplements, and incubated at 37 °C with 5% CO2. Compounds were dissolved in DMSO, prepared at various concentrations (1–25 μM), and applied to the cells for 72 h. Cell viability was assessed using the MTS assay, and the inhibitory concentration (IC50) was calculated using GraphPad Prism 8.0. Each compound was tested in triplicate across multiple experiments.

[7] = Metabolic stability in mouse liver microsomes; type: in vitro ADME; details: MLMs, 120 min
Excerpt: Moving on to the next parameter, which is metabolism, we determined metabolic stability, using mouse liver microsomes (MLMs). […]
Main metabolic pathways are marked in red.

T2 sequence (P02768 25-609): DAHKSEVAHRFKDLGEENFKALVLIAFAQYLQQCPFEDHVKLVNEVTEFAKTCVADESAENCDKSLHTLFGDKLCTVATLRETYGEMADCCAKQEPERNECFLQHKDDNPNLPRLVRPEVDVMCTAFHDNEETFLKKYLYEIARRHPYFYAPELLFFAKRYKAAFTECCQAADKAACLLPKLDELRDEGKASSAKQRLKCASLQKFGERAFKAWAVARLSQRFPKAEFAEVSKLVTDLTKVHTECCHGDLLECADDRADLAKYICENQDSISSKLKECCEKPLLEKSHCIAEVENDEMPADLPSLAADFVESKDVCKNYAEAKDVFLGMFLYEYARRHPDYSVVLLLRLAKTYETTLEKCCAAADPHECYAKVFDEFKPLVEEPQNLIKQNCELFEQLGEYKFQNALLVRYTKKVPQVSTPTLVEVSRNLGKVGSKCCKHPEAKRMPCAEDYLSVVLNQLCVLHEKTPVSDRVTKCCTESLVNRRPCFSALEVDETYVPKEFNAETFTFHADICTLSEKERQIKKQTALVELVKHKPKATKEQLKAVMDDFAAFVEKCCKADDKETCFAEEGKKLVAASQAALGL
T1 sequence (P50406 whole entry): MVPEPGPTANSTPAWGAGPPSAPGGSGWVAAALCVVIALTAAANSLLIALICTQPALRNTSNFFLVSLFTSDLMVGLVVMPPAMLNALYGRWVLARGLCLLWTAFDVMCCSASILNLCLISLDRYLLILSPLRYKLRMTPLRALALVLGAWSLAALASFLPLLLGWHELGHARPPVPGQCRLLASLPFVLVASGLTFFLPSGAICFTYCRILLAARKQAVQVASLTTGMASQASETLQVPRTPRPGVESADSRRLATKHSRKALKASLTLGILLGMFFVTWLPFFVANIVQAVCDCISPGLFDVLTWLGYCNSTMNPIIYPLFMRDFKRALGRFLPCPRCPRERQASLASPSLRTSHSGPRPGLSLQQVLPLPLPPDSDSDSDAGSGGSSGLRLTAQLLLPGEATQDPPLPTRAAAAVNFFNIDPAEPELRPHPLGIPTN

## CC(=O)Nc1ccccc1 [Acetanilidine]
[1]
  CHI IAM of the calibration set: 11.5

## COc1cccc2c1C(=O)c1c(O)c3c(c(O)c1C2=O)C[C@@](O)(C(=O)CO)C[C@@H]3O[C@H]1C[C@H](N)[C@H](O)[C@H](C)O1 [Doxorubicin, reference compound]
1321N1 astrocytoma cells
  IC50: 1.1 µM

## CCCCCCC(=O)c1ccccc1 [Heptanophenone]
[1]
  CHI IAM of the calibration set: 45.7

## CCCCCC(=O)c1ccccc1 [Hexanophenone]
[1]
  CHI IAM of the calibration set: 41.8

## CCCCCCCC(=O)c1ccccc1 [Octanophenone]
[1]
  CHI IAM of the calibration set: 49.4

## O=S(=O)(c1ccc2ccccc2c1)N1CCN(C2=Nc3ccccc3CN2)CC1 [PP 1, 2-[4-(Naphthalene-2-sulfonyl)piperazin-1-yl]-3,4-dihydroquinazoline]
5-HT6
  Ki: 8.66 ± 2.16 µM

## O=S(=O)(NCCCCNC1=NCc2ccccc2N1)c1ccc2ccccc2c1 [PP 2, N-{4-[(1,4-Dihydroquinazolin-2-yl)amino]butyl}naphthalene-2-sulfonamide]
5-HT6
  Ki: 0.616 ± 0.154 µM

## O=S(=O)(NCCCCCCNC1=NCc2ccccc2N1)c1ccc2ccccc2c1 [PP 3, N-{6-[(1,4-Dihydroquinazolin-2-yl)amino]hexyl}naphthalene-2-sulfonamide]
1321N1 astrocytoma cells
  IC50: 13.3 ± 0.1 µM
5-HT6
  Ki: 0.201 ± 0.05 µM
U87MG glioblastoma cells
  IC50: 12 ± 0.9 µM

## O=S(=O)(NCCNC1=Nc2ccccc2CN1)c1cccc2ccccc12 [PP 4, N-{2-[(3,4-Dihydroquinazolin-2-yl)amino]ethyl}naphthalene-1-sulfonamide]
[2]
  %HSA: 94.8%
  logKHSA: 1.18 and 1.2
1321N1 astrocytoma cells
  IC50: > 25 µM
5-HT6
  Ki: 4.33 ± 1.08 µM
[3]
  CHI C18 pH 2.6: 64.9
  CHI C18 pH 7.4: 79.9
  CHI C18 pH 10.5: 101.9
MCF7 breast cancer cells
  IC50: > 25 µM
[4]
  IC50: > 25 µM
U87MG glioblastoma cells
  IC50: > 25 µM
[5]
  CHI IAM: 50.2
U-251 glioblastoma cells
  IC50: > 25 µM
[6]
  IC50: > 25 µM

## O=S(=O)(c1cccc2ccccc12)N1CCN(C2=Nc3ccccc3CN2)CC1 [PP 5, 2-[4-(Naphthalene-1-sulfonyl)piperazin-1-yl]-3,4-dihydroquinazoline]
5-HT6
  Ki: 3.49 ± 0.872 µM

## O=S(=O)(NCCCCNC1=Nc2ccccc2CN1)c1cccc2ccccc12 [PP 7, N-{4-[(3,4-Dihydroquinazolin-2-yl)amino]butyl}naphthalene-1-sulfonamide]
5-HT6
  Ki: 0.697 ± 0.174 µM

## O=S(=O)(NCCCCCCNC1=Nc2ccccc2CN1)c1cccc2ccccc12 [PP 8, N-{6-[(3,4-Dihydroquinazolin-2-yl)amino]hexyl}naphthalene-1-sulfonamide]
1321N1 astrocytoma cells
  IC50: 18.4 ± 2.9 µM
5-HT6
  Ki: 0.098 ± 0.025 µM
MCF7 breast cancer cells
  IC50: > 25 µM
[4]
  IC50: > 25 µM
U87MG glioblastoma cells
  IC50: 24.5 ± 1.4 µM
U-251 glioblastoma cells
  IC50: > 25 µM
[6]
  IC50: > 25 µM

## CC1NC(NCCNS(=O)(=O)c2cccc3ccccc23)=Nc2ccccc21 (stereo not drawn) [PP 9, N-{2-[(4-Methyl-3,4-dihydroquinazolin-2-yl)amino]ethyl}naphthalene-1-sulfonamide]
5-HT6
  Ki: 2.42 ± 0.605 µM

## CC1NC(NCCCCCCNS(=O)(=O)c2cccc3ccccc23)=Nc2c(Cl)cc(Cl)cc21 (stereo not drawn) [PP 12, N-{6-[(6,8-Dichloro-4-methyl-3,4-dihydroquinazolin-2-yl)amino]hexyl}naphthalene-1-sulfonamide]
[2]
  %HSA: 99.7%
  logKHSA: 1.9
1321N1 astrocytoma cells
  IC50: 5.7 ± 0.1 µM
5-HT6
  Ki: 0.208 ± 0.052 µM
[3]
  CHI C18 pH 2.6: 97.1
  CHI C18 pH 7.4: 111.2
  CHI C18 pH 10.5: 121.8
[7]
  metabolic stability, % of remaining: 76.87%
U87MG glioblastoma cells
  IC50: 9.5 ± 0.7 µM
[5]
  CHI IAM: 59.4

## O=S(=O)(NCCNc1ncc2ccccc2n1)c1cccc2ccccc12 [PP 14, N-{2-[(Quinazolin-2-yl)amino]ethyl}naphthalene-1-sulfonamide]
[2]
  %HSA: 95.0%
  logKHSA: 1.2
1321N1 astrocytoma cells
  IC50: > 25 µM
5-HT6
  Ki: 4.18 ± 1.04 µM
[3]
  CHI C18 pH 2.6: 78.3
  CHI C18 pH 7.4: 86.3
  CHI C18 pH 10.5: 87.1
MCF7 breast cancer cells
  IC50: > 25 µM
[4]
  IC50: > 25 µM
U87MG glioblastoma cells
  IC50: > 25 µM
[5]
  CHI IAM: 37.2
U-251 glioblastoma cells
  IC50: > 25 µM
[6]
  IC50: > 25 µM

## O=S(=O)(NCCCCCCNc1ncccn1)c1cccc2ccccc12 [PP 16, N-{6-[(Pyrimidin-2-yl)amino]hexyl}naphthalene-1-sulfonamide]
5-HT6
  Ki: 3.1 ± 0.776 µM
MCF7 breast cancer cells
  IC50: > 25 µM
[4]
  IC50: > 25 µM
U-251 glioblastoma cells
  IC50: > 25 µM
[6]
  IC50: > 25 µM

## c1ccc(CNc2nc3ccccc3[nH]2)cc1 [PP 17, N-Benzyl-1H-1,3-benzimidazol-2-amine]
5-HT6
  5-HT6 Ki: did not show any affinity
  Ki: 31.9 ± 7.96 µM

## c1ccc(CCNc2nc3ccccc3[nH]2)cc1 [PP 18, N-(2-Phenylethyl)-1H-1,3-benzimidazol-2-amine]
5-HT6
  5-HT6 Ki: did not show any affinity
  Ki: 19.8 ± 4.95 µM

## c1ccc2c(c1)CNC(NCCc1cccc3ccccc13)=N2 [PP 19, N-[2-(Naphthalen-1-yl)ethyl]-3,4-dihydroquinazolin-2-amine]
5-HT6
  Ki: 1.87 ± 0.46 µM
MCF7 breast cancer cells
  IC50: > 25 µM
[4]
  IC50: > 25 µM
U-251 glioblastoma cells
  IC50: > 25 µM
[6]
  IC50: > 25 µM

## c1ccc2c(N3CCN(c4nc5ccccc5[nH]4)CC3)cccc2c1 [PP 20, 2-[4-(Naphthalen-1-yl)piperazin-1-yl]-1H-1,3-benzodiazole]
5-HT6
  5-HT6 Ki: did not show any affinity
  Ki: 5.05 ± 1.26 µM
MCF7 breast cancer cells
  IC50: > 25 µM
[4]
  IC50: > 25 µM
U-251 glioblastoma cells
  IC50: > 25 µM
[6]
  IC50: > 25 µM

## c1ccc2c(c1)CNC(NCCCCCCNc1nsc3ccccc13)=N2 [PP 23, N6-(1,2-Benzothiazol-3-yl)-N1-(3,4-dihydroquinazolin-2-yl)hexane-1,6-diamine]
5-HT6
  Ki: 0.975 ± 0.244 µM

## CC(=O)Nc1ccc(O)cc1 [Paracetamol]
[1]
  CHI IAM of the calibration set: 2.9
